BindingDB's records for doi:10.7270/Q2TX3CTT (Broad Institute, 2010)
Counter-ions that a name gives are not always drawn.

Target: Glycogen synthase kinase-3 beta (Homo sapiens, UniProt P49841)
Assay: GSK3beta kinase inhibitor potency, dose response, biochemical, luminescence, cell-free homogeneous, retest (AID 434954)

Chain of Glycogen synthase kinase-3 beta (P49841 whole entry): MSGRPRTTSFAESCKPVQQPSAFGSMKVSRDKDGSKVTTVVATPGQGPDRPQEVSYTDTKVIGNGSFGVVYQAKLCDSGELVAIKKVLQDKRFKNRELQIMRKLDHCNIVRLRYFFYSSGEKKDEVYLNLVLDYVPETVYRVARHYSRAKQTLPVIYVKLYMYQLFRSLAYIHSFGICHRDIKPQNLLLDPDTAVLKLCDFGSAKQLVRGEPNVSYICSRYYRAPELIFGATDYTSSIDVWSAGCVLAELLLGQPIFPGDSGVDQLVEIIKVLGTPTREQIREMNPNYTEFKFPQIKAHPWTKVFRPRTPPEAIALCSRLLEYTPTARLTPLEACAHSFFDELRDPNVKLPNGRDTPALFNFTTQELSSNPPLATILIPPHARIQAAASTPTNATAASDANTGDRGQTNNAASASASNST

## CCN(CC)C(=O)Cn1cc(C(=O)C(=O)Nc2ccc3c(c2)OCCO3)c2ccccc21
  EC50: > 300 µM

## O=C(CSc1nnc(CNC(=O)c2c(F)cccc2F)o1)NCc1ccc(F)cc1
  EC50: > 300 µM

## COc1cccc(NC(=O)CN(C)C(=O)c2cc(-c3ccc(F)cc3)nc3ccccc23)c1
  EC50: > 300 µM

## CC(C)N(Cc1nnc(-c2ccc(Cl)cc2)o1)C(=O)C1=COCCO1
  EC50: > 300 µM

## O=C(Cn1cc[n+](CC(=O)c2ccc(Cl)cc2Cl)c1)c1ccc(Cl)cc1Cl [1,3-Bis-[2-(2,4-dichloro-phenyl)-2-oxo-ethyl]-3H-imidazol-1-ium]
  EC50: > 300 µM

## COc1ccc(Nc2nc3ccccc3s2)cc1 [1,3-benzothiazol-2-yl-(4-methoxyphenyl)amine]
  EC50: > 300 µM

## O=C(Nc1ccncc1)Nc1ccncc1 [1,3-bis(4-pyridyl)urea]
  EC50: > 300 µM

## O=C(NN=CC1=CC(=O)C(=O)CC1)NN=CC1=CC(=O)C(=O)CC1 [1,3-bis[[(Z)-(3-hydroxy-4-oxocyclohexa-2,5-dien-1-ylidene)methyl]amino]urea]
  EC50: 13.3 µM

## Cc1ccccc1C1=NC(C(F)(F)F)(C(F)(F)F)c2c(n(C)c(=O)n(C)c2=O)N1 [1,3-dimethyl-7-(2-methylphenyl)-5,5-bis(trifluoromethyl)-8H-pyrimido[4,5-d]pyrimidine-2,4-dione]
  EC50: > 300 µM

## CN(Cc1ccccc1)Cc1nc2c([nH]1)c(=O)n(C)c(=O)n2C [1,3-dimethyl-8-[[methyl-(phenylmethyl)amino]methyl]-7H-purine-2,6-dione]
  EC50: > 300 µM

## O=NCc1cn(-c2ccccc2)nc1-c1ccccc1 [1,3-diphenyl-4-pyrazolecarboxaldehyde oxime]
  EC50: 26 µM

## Cc1c(C(=O)O)sc2c1c(=O)n(Cc1ccccc1)c(=O)n2C [1,5-dimethyl-2,4-dioxo-3-(phenylmethyl)-6-thieno[2,3-d]pyrimidinecarboxylic acid]
  EC50: > 300 µM

## Cn1nc(-c2ccccn2)nc2c(=O)n(C)c(=O)nc1-2 [1,6-dimethyl-3-(2-pyridinyl)pyrimido[5,4-e][1,2,4]triazine-5,7(1H,6H)-dione]
  EC50: 46.2 µM

## O=C(CSc1ccc2nnc(-c3cccs3)n2n1)N1CCCC1 [1-(1-pyrrolidinyl)-2-[(3-thiophen-2-yl-[1,2,4]triazolo[4,3-b]pyridazin-6-yl)thio]ethanone]
  EC50: > 300 µM

## c1ccc2c(c1)OCC(CNCC1COc3ccccc3O1)O2 (centres undefined) [1-(2,3-dihydro-1,4-benzodioxin-3-yl)-N-(2,3-dihydro-1,4-benzodioxin-3-ylmethyl)methanamine]
  EC50: > 300 µM

## CCOc1ccc2c(c1)C(=O)C(=O)N2CC1COc2ccccc2O1 (centres undefined) [1-(2,3-dihydro-1,4-benzodioxin-3-ylmethyl)-5-ethoxy-indole-2,3-dione]
  EC50: > 300 µM

## O=[N+]([O-])c1ccc(N2CCCCCC2)c([N+](=O)[O-])c1 [1-(2,4-Dinitro-phenyl)-azepane]
  EC50: > 300 µM

## Cc1c(O)ccc(C(=O)CN2CCN(c3ccc(F)cc3)CC2)c1O [1-(2,4-dihydroxy-3-methylphenyl)-2-[4-(4-fluorophenyl)-1-piperazinyl]ethanone]
  EC50: > 300 µM

## Cc1ccc(NC(=S)NC2CC3CCC(C2)N3Cc2ccco2)c(C)c1 (centres undefined) [1-(2,4-dimethylphenyl)-3-[8-(2-furanylmethyl)-8-azabicyclo[3.2.1]octan-3-yl]thiourea]
  EC50: > 300 µM

## COc1ccc(N2CCN(CC(O)COc3c(OC)cccc3OC)CC2)cc1 (centres undefined) [1-(2,6-dimethoxyphenoxy)-3-[4-(4-methoxyphenyl)piperazin-1-yl]propan-2-ol;hydrochloride]
  EC50: > 300 µM

## CC(C)(C)C(=O)c1cnc(Nc2ccccc2)s1 [1-(2-anilino-1,3-thiazol-5-yl)-2,2-dimethylpropan-1-one]
  EC50: > 300 µM

## O=C(O)CCn1cc(C(=O)O)c(-c2ccccc2)n1 [1-(2-carboxyethyl)-3-phenyl-4-pyrazolecarboxylic acid]
  EC50: > 300 µM

## COc1ccccc1-c1nc(C(=O)NCC2CCCO2)cc2c1[nH]c1ccccc12 (centres undefined) [1-(2-methoxyphenyl)-N-(oxolan-2-ylmethyl)-9H-pyrido[3,4-b]indole-3-carboxamide]
  EC50: > 300 µM

## Cc1occc1C(=O)N1CCN(C(=O)C2CCCO2)CC1 (centres undefined) [1-(2-methyl-3-furoyl)-4-(tetrahydro-2-furanylcarbonyl)piperazine]
  EC50: > 300 µM

## Cc1ccccc1NC(=O)Nc1ccccn1 [1-(2-methylphenyl)-3-pyridin-2-ylurea]
  EC50: > 300 µM

## Cc1ccccc1-n1nnc2c(=O)oc3ccccc3c21 [1-(2-methylphenyl)chromeno[3,4-d]triazol-4-one]
  EC50: > 300 µM

## COC(=O)C1=CN(Cc2ccc(OC)c(OC)c2)C=C(C(=O)OC)C1c1ccccc1F [1-(3,4-Dimethoxy-benzyl)-4-(2-fluoro-phenyl)-1,4-dihydro-pyridine-3,5-dicarboxylic acid dimethyl ester]
  EC50: > 300 µM

## CC(C)CC(CO)N1CCN(C(=O)c2ccc(Cl)c(Cl)c2)CCC1=O (centres undefined) [1-(3,4-dichlorobenzoyl)-4-(1-hydroxy-4-methylpentan-2-yl)-1,4-diazepan-5-one]
  EC50: > 300 µM

## Cc1cc(C)cc(NC(=O)NCC2CCN(Cc3cc(C)ccc3C)CC2)c1 [1-(3,5-dimethylphenyl)-3-[[1-[(2,5-dimethylphenyl)methyl]-4-piperidinyl]methyl]urea]
  EC50: > 300 µM

## CC(C)OCCCN1CN(S(=O)(=O)c2cccc(Cl)c2)c2nc3ccccc3nc21 [1-(3-Chloro-benzenesulfonyl)-3-(3-isopropoxy-propyl)-2,3-dihydro-1H-imidazo[4,5-b]quinoxaline]
  EC50: > 300 µM

## COc1cccc(C(=O)CSc2nccn2C)c1 [1-(3-Methoxy-phenyl)-2-(1-methyl-1H-imidazol-2-ylsulfanyl)-ethanone]
  EC50: > 300 µM

## CC(=O)c1cccc(NC(=O)NN2CCN(C)CC2)c1 [1-(3-ethanoylphenyl)-3-(4-methylpiperazin-1-yl)urea]
  EC50: > 300 µM

## Cc1cc(OCC(O)CNC(C)c2ccccc2)ccc1C(C)C (centres undefined) [1-(3-methyl-4-propan-2-ylphenoxy)-3-(1-phenylethylamino)-2-propanol;hydrochloride]
  EC50: > 300 µM

## Nc1nonc1-n1nnc(C(=O)NN=Cc2c(F)cccc2Cl)c1-c1ccc2c(c1)OCO2 [1-(4-amino-1,2,5-oxadiazol-3-yl)-5-(1,3-benzodioxol-5-yl)-N-[(2-chloro-6-fluorophenyl)methylideneamino]-4-triazolecarboxamide]
  EC50: 1.58 µM

## Nc1nonc1-n1nnc(C(=O)NN=Cc2cccc(F)c2)c1CN1CCCCCC1 [1-(4-amino-1,2,5-oxadiazol-3-yl)-5-(1-azepanylmethyl)-N-[(3-fluorophenyl)methylideneamino]-4-triazolecarboxamide]
  EC50: 2.56 µM

## CCCCOc1ccc(C=NNC(=O)c2nnn(-c3nonc3N)c2CN2CCCCCC2)cc1 [1-(4-amino-1,2,5-oxadiazol-3-yl)-5-(1-azepanylmethyl)-N-[(4-butoxyphenyl)methylideneamino]-4-triazolecarboxamide]
  EC50: 55.3 µM

## CN(C)c1ccc(C=NNC(=O)c2nnn(-c3nonc3N)c2CN2CCCCCC2)cc1 [1-(4-amino-1,2,5-oxadiazol-3-yl)-5-(1-azepanylmethyl)-N-[[4-(dimethylamino)phenyl]methylideneamino]-4-triazolecarboxamide]
  EC50: > 300 µM

## COC(=O)c1nnn(-c2nonc2N)c1CN1CCc2ccccc21 [1-(4-amino-1,2,5-oxadiazol-3-yl)-5-(2,3-dihydroindol-1-ylmethyl)-4-triazolecarboxylic acid methyl ester]
  EC50: 6.97 µM

## CCc1ccc(C=NNC(=O)c2nnn(-c3nonc3N)c2CN2CCc3ccccc32)cc1 [1-(4-amino-1,2,5-oxadiazol-3-yl)-5-(2,3-dihydroindol-1-ylmethyl)-N-[(4-ethylphenyl)methylideneamino]triazole-4-carboxamide]
  EC50: > 300 µM

## Nc1nonc1-n1nnc(C(=O)NN=Cc2ccccc2)c1CN1CCc2ccccc21 [1-(4-amino-1,2,5-oxadiazol-3-yl)-5-(2,3-dihydroindol-1-ylmethyl)-N-[(phenylmethylene)amino]-4-triazolecarboxamide]
  EC50: 3.62 µM

## COc1cccc(-c2c(C(=O)NN=C(C)c3ccncc3)nnn2-c2nonc2N)c1 [1-(4-amino-1,2,5-oxadiazol-3-yl)-5-(3-methoxyphenyl)-N-(1-pyridin-4-ylethylideneamino)-4-triazolecarboxamide]
  EC50: 19 µM

## CCOC(=O)c1nnn(-c2nonc2N)c1-c1ccc(OCC)cc1 [1-(4-amino-1,2,5-oxadiazol-3-yl)-5-(4-ethoxyphenyl)-4-triazolecarboxylic acid ethyl ester]
  EC50: 20 µM

## CCOC(=O)c1nnn(-c2nonc2N)c1-c1ccc(OC)cc1 [1-(4-amino-1,2,5-oxadiazol-3-yl)-5-(4-methoxyphenyl)-4-triazolecarboxylic acid ethyl ester]
  EC50: 14.4 µM

## Nc1nonc1-n1nnc(C(=O)NN=Cc2ccccn2)c1CNc1ccccc1 [1-(4-amino-1,2,5-oxadiazol-3-yl)-5-(anilinomethyl)-N-(2-pyridinylmethylideneamino)-4-triazolecarboxamide]
  EC50: > 300 µM

## CCN(CC)Cc1c(C(=O)NN=Cc2cccc3ccccc23)nnn1-c1nonc1N [1-(4-amino-1,2,5-oxadiazol-3-yl)-5-(diethylaminomethyl)-N-(1-naphthalenylmethylideneamino)-4-triazolecarboxamide]
  EC50: > 300 µM

## CCN(CC)Cc1c(C(=O)NN=Cc2ccco2)nnn1-c1nonc1N [1-(4-amino-1,2,5-oxadiazol-3-yl)-5-(diethylaminomethyl)-N-(2-furanylmethylideneamino)-4-triazolecarboxamide]
  EC50: 119 µM

## CCN(CC)Cc1c(C(=O)NN=Cc2cccnc2)nnn1-c1nonc1N [1-(4-amino-1,2,5-oxadiazol-3-yl)-5-(diethylaminomethyl)-N-(3-pyridinylmethylideneamino)-4-triazolecarboxamide]
  EC50: 9.17 µM

## CCN(CC)Cc1c(C(=O)NN=Cc2cccs2)nnn1-c1nonc1N [1-(4-amino-1,2,5-oxadiazol-3-yl)-5-(diethylaminomethyl)-N-(thiophen-2-ylmethylideneamino)triazole-4-carboxamide]
  EC50: 5.16 µM

## CCN(CC)Cc1c(C(=O)NN=Cc2ccc(C)o2)nnn1-c1nonc1N [1-(4-amino-1,2,5-oxadiazol-3-yl)-5-(diethylaminomethyl)-N-[(5-methylfuran-2-yl)methylideneamino]triazole-4-carboxamide]
  EC50: 23 µM
